≈ marks a conversion by molar mass, not a printed value.
How the values were obtained:
Format in all cases: cell-based
C. difficile = assay: MIC by agar dilution (NCCLS M11-A5) on C. difficile strains; conditions: for MIC: Clostridioides difficile; for susceptibility of strains: Strains 80 and 29-5-30
B. frag 25285 = assay: MIC by agar dilution, QC organism B. frag 25285; conditions: QC B. frag 25285, 48 h anaerobic
B. theta 29741 = assay: MIC by agar dilution, QC organism B. theta 29741; conditions: QC B. theta 29741, 48 h anaerobic
[1] = ATCC43255, Sample 31, QC C. diff ATCC 43255
[2] = Sample 23, C. difficile 11-5-03
[3] = Sample 24, C. difficile 13-5-03
[4] = Sample 25, C. difficile 14-5-03
[5] = Sample 26, C. difficile 16-5-03
[6] = Sample 27, C. difficile 17-5-03
[7] = Sample 28, C. difficile 19-5-03
[8] = Sample 29, C. difficile 22-5-03
[9] = Sample 30, C. difficile 29-5-03

Compound	MIC (C. difficile; [1])	MIC (C. difficile; Sample 1, C. difficile 18)	MIC (C. difficile; Sample 2, C. difficile 22)	MIC (C. difficile; Sample 3, C. difficile 28)	MIC (C. difficile; Sample 4, C. difficile 40)	MIC (C. difficile; Sample 5, C. difficile 44)	MIC (C. difficile; Sample 6, C. difficile 50)	MIC (C. difficile; Sample 7, C. difficile 60)	MIC (C. difficile; Sample 8, C. difficile 70)	MIC (C. difficile; Sample 9, C. difficile 80)	MIC (C. difficile; Sample 10, C. difficile 101)	MIC (C. difficile; Sample 11, C. difficile 107)	MIC (C. difficile; Sample 12, C. difficile 113)	MIC (C. difficile; Sample 13, C. difficile 116)	MIC (C. difficile; Sample 14, C. difficile 143)	MIC (C. difficile; Sample 15, C. difficile 146)	MIC (C. difficile; Sample 16, C. difficile 154)	MIC (C. difficile; Sample 17, C. difficile 166)	MIC (C. difficile; Sample 18, C. difficile 199)	MIC (C. difficile; Sample 19, C. difficile 65C)	also measured
Cc1ncc([N+](=O)[O-])n1CCO [Metronidazole, metronidazole, reference compound]	0.5 µg/mL (≈ 2.92 µM)	0.5 µg/mL (≈ 2.92 µM)	0.5 µg/mL (≈ 2.92 µM)	0.5 µg/mL (≈ 2.92 µM)	0.5 µg/mL (≈ 2.92 µM)	0.5 µg/mL (≈ 2.92 µM)	0.5 µg/mL (≈ 2.92 µM)	0.5 µg/mL (≈ 2.92 µM)	0.25 µg/mL (≈ 1.46 µM)	0.5 µg/mL (≈ 2.92 µM)	0.5 µg/mL (≈ 2.92 µM)	0.5 µg/mL (≈ 2.92 µM)	0.5 µg/mL (≈ 2.92 µM)	0.25 µg/mL (≈ 1.46 µM)	0.5 µg/mL (≈ 2.92 µM)	0.5 µg/mL (≈ 2.92 µM)	0.25 µg/mL (≈ 1.46 µM)	0.5 µg/mL (≈ 2.92 µM)	0.25 µg/mL (≈ 1.46 µM)	0.5 µg/mL (≈ 2.92 µM)	MIC (C. difficile; Sample 20, C. difficile 5-5-03): 0.5 µg/mL (≈ 2.92 µM); MIC (C. difficile; Sample 21, C. difficile 6-5-03): 0.5 µg/mL (≈ 2.92 µM); MIC (C. difficile; Sample 22, C. difficile 7-5-03): 0.25 µg/mL (≈ 1.46 µM); MIC (C. difficile; [2]): 0.5 µg/mL (≈ 2.92 µM); MIC (C. difficile; [3]): 0.5 µg/mL (≈ 2.92 µM); MIC (C. difficile; [4]): 0.5 µg/mL (≈ 2.92 µM); MIC (C. difficile; [5]): 0.5 µg/mL (≈ 2.92 µM); MIC (C. difficile; [6]): 0.25 µg/mL (≈ 1.46 µM); MIC (C. difficile; [7]): 0.5 µg/mL (≈ 2.92 µM); MIC (C. difficile; [8]): 0.25 µg/mL (≈ 1.46 µM); MIC (C. difficile; [9]): 0.5 µg/mL (≈ 2.92 µM); susceptibility of strains (C. difficile): less susceptible; MIC (B. frag 25285): 1 µg/mL (≈ 5.84 µM); MIC (B. theta 29741): 2 µg/mL (≈ 11.7 µM)
CO[C@H]1/C=C/O[C@@]2(C)Oc3c(C)c(O)c4c(=O)c(c5oc6cc(N7CCN(CC(C)C)CC7)cc(O)c6nc-5c4c3C2=O)NC(=O)/C(C)=C\C=C\[C@H](C)[C@H](O)[C@@H](C)[C@@H](O)[C@@H](C)[C@H](OC(C)=O)[C@@H]1C [ABI1648, 3′-hydroxy-5′-(4-isobutyl-1-piperazinyl) benzoxazinorifamycin]	0.002 µg/mL (≈ 0.00213 µM)	0.001 µg/mL (≈ 0.00106 µM)	0.001 µg/mL (≈ 0.00106 µM)	0.002 µg/mL (≈ 0.00213 µM)	0.001 µg/mL (≈ 0.00106 µM)	0.001 µg/mL (≈ 0.00106 µM)	0.002 µg/mL (≈ 0.00213 µM)	0.002 µg/mL (≈ 0.00213 µM)	0.001 µg/mL (≈ 0.00106 µM)	> 20.5 µg/mL	0.004 µg/mL (≈ 0.00425 µM)	0.001 µg/mL (≈ 0.00106 µM)	0.004 µg/mL (≈ 0.00425 µM)	0.002 µg/mL (≈ 0.00213 µM)	≤ 0.0005 µg/mL	0.001 µg/mL (≈ 0.00106 µM)	≤ 0.0005 µg/mL	0.001 µg/mL (≈ 0.00106 µM)	≤ 0.0005 µg/mL	0.002 µg/mL (≈ 0.00213 µM)	MIC (C. difficile; Sample 20, C. difficile 5-5-03): 0.002 µg/mL (≈ 0.00213 µM); MIC (C. difficile; Sample 21, C. difficile 6-5-03): 0.002 µg/mL (≈ 0.00213 µM); MIC (C. difficile; Sample 22, C. difficile 7-5-03): 0.002 µg/mL (≈ 0.00213 µM); MIC (C. difficile; [2]): 0.001 µg/mL (≈ 0.00106 µM); MIC (C. difficile; [3]): ≤ 0.0005 µg/mL; MIC (C. difficile; [4]): 0.001 µg/mL (≈ 0.00106 µM); MIC (C. difficile; [5]): 0.008 µg/mL (≈ 0.0085 µM); MIC (C. difficile; [6]): 0.002 µg/mL (≈ 0.00213 µM); MIC (C. difficile; [7]): 0.002 µg/mL (≈ 0.00213 µM); MIC (C. difficile; [8]): 0.001 µg/mL (≈ 0.00106 µM); MIC (C. difficile; [9]): > 0.5 µg/mL; susceptibility of strains (C. difficile): less susceptible; effectiveness compared with metronidazole (C. difficile; against almost all 31 strains of C. difficile): much more effective than metronidazole; MIC (B. frag 25285): 0.03 µg/mL (≈ 0.0319 µM); MIC (B. theta 29741): 0.03 µg/mL (≈ 0.0319 µM)
